The values below come from patent US6046238A, “Method for treating or preventing the spread of acne vulgaris” (TriStrata, Inc., priority 1999, dated 2000).

Converted amounts (≈) assume the structure as drawn. Where two headings read alike, the source gives them in different places.

For one assay, the system named is Pseudomonas aeruginosa. Put plainly: MIC Agar Dilution Test, Pseudomonas aeruginosa. In kind it is cell-based. The note with it: P. aeruginosa. From the text:
The following strains of microorganisms were used in Minimum Inhibitory Concentration (MIC) tests for phenyl 2-acetoxyethanoic acid in this example and for benzoyl peroxide, chlorhexidine gluconate and triclosan in the following examples. In total, five strains were used for S. aureus, five strains were used for S. epidermidis, two strains were used for M. sedentarius, three strains were used for M. luteus, two strains were used for B. epidermis, three strains were used for C. minutissium, one strain was used for S. marcescens, three strains were used for P. aeruginosa, four strains were used for E. coli, and thirty-two strains were used for P. acnes.
Antimicrobial effects were determined based on MIC Agar Dilution Test utilizing Trypticase Soy Agar II (BBL) incorporation plates with and without 10% intralipid (Kabi Pharmacia Inc.). Initially, phenyl 2-acetoxyethanoic acid was prepared as a 2 mg/ml (0.2%) solution in water. This solution with serial dilution was incorporated into the test agar plates. The MIC test gave similar results when the same species but a different strain was used.
Under the same test conditions described in Example 1, benzoyl peroxide was prepared as a 2.5 mg/ml (0.25%) solution in water. This solution with serial dilution was incorporated into the test agar plates. Typical test results are shown as follows.
Under the same test conditions described in Example 1, chlorhexidine gluconate was prepared as a 2 mg/ml (0.2%) solution in water. This solution with serial dilution was incorporated into the test agar plates. Typical test results are shown as follows.
Under the same test conditions described in Example 1, triclosan was prepared as a 10 mg/ml (1%) solution in water. This solution with serial dilution was incorporated into the test agar plates. Typical test results are shown as follows.
Ten different species of bacteria were used in Minimum Inhibitory Concentration (MIC) tests. The bacteria include S. aureus, S. epidermidis,M. sedentarius, M. luteus, B. epidermis, C. minutissium, S. marcescens, P. aeruginosa, E. coli, and P. acnes. In addition various sources and strains of these bacteria were also included in the tests, and up to 32 different strains of P. acnes were used.
The test substance selected from phenyl 2-acetoxyethanoic acid, benzoyl peroxide, chlorhexidine gluconate and triclosan was dissolved in water, and the solution with serial dilution was incorporated into the test agar plates. The plates containing different concentrations of test substance were inoculated with a strain of bacterium. MIC is defined as the lowest concentration of the test substance in the plate in which there is no growth of the microorganism.
Background: In agar dilution, organisms are placed on agar that contains the substance at set levels.

Assay [1] is described as follows: treatment of oral infections. The class given is in vivo, human. The note with it: 2% composition diluted to 0.1%; oral rinse twice daily. As for the experimental part:
Compositions for treatment of oral infections may contain an aryl 2-acetoxyethanoic acid as the only active ingredient. In this case a phenyl 2-acetoxyethanoic acid or diphenyl 2-acetoxyethanoic acid 2% composition was formulated by dissolving the active ingredient 2 g in ethanol 78 ml and propylene glycol 20 ml. Before use, this composition was diluted to 0.1% with water by mixing one part of the composition with 19 parts of water. The treatment involves oral rinse, wash and gargle by keeping the diluted composition inside the oral cavity for a few minutes, and then spit out. Such procedure may be repeated twice daily for several days until the infection is eradicated usually within 5-7 days.

Assay [2] is described as follows: topical treatment of folliculitis and perifolliculitis. The class given is in vivo, human. The conditions noted are these: 0.9%, twice daily; nine patients. As to the method: Nine patients having various degrees of folliculitis and perifolliculitis participated in this study. A test composition containing 0.9% phenyl 2-acetoxyethanoic acid or diphenyl 2-acetoxyethanoic acid was prepared by dissolving 0.9 g compound in 79.1 ml 2-propanol, 15 ml butane-1,3-diol and 5 ml nonoxynol-6. The composition was packaged in one-ounce bottles. The patients were instructed to apply the test composition twice daily on the infected skin lesions and involved areas. Topical applications were continued up to 8 weeks.

`CC(=O)OC(C(=O)O)c1ccccc1` (centres unmarked) [phenyl 2-acetoxyethanoic acid]: the minimum inhibitory concentration (MIC) – broadly, the smallest concentration in the dilution series that meets the test's criterion for growth inhibition – with Pseudomonas aeruginosa (10% intralipid, read-out: MIC Lipid) was 1000 µg/mL (≈ 5.15 mM); in the assay with Pseudomonas aeruginosa (no lipid, read-out: MIC No Lipid), 1000 µg/mL (≈ 5.15 mM). The “time within which oral infection is usually eradicated” value in assay [1] lay within 5 to 7 days. The “deeper lesions of papules” value in assay [2] is listed as “eradicated or substantially improved after 4 to 8 weeks of topical applications”. The “superficial folliculitis and perifolliculitis lesions” value in assay [2] is listed as “eradicated or substantially improved after a few days of topical applications”.
